Where two headings read alike, the source gives them in different places.
Key:
HIV virus [1] = assay type: cell-based; settings: for Neutralization Index: 200 μg/ml, 37°-1 h; for Viral titre after incubation at 37°-1 h with 200 μg/ml of drug: mean of 3 experiments
A-PR8 Influenza virus = settings: in words; cited from earlier work
[2] = system: various Arborvirus, Poxvirus, Nitavirus and Myxovirus strains; settings: in words; cited from earlier work
HTLV IIIB = test: HTLV IIIB-inhibitory activity on cultures of lymphocytes, % virus inhibition by PCR; assay type: cell-based
Description: HTLV IIIB-inhibitory activity of Xenaldial was tested on cultures of lymphocytes. The % virus inhibition was determined by means of PCR, according to the following procedure:
DNA was extracted from 5×10^4 lymphocytes using 400 μl lysate and incubating at 56° C./60′ and at 92° C./15′. Afterwards the mixture was cooled at room temperature and kept at 4° C.
The oligonucleotide SK19 (41 bases—corresponding to the internal sequence of the amplified pro-viral DNA) was synthesised, dissolved in water at a final concentration of 20 μm and 5′-labelled with polynucleotide kinase and ^32P-ATP.
Reagent preparation: Nucleotides: 125 μl of each nucleotide 10 mM were diluted to 1 ml with H2O (final concentration 1.25 mM); buffer 10×: KCl 2M—250 μl, TrisCl 1M pH8.3—100 μl, MgCl2 1M—20 μl, gelatine—10 mg, diluted to 1 ml with H2O;
Oligonucleotide pair: oligonucleotides SK38 and 39 were synthesised, purified and dissolved in a concentration of 200-300 μM.
Reaction: mixing buffer 10×, nucleotides (1.25 mM), oligonucleotide primer SK38 and SK39 15 μM, lysate, Taq polymerase 5 U/μl; denaturation 90° C./60′, annealing 55° C./30′, polymerisation 72° C./30′; repeat the cycle 30 times.

HIV virus [3] = test: Viral growth curve in infected lymphoblasts cultures in the presence of the tested compounds; assay type: cell-based
Description: (§1) Lymphoblasts cultures in stationary tubes (inoculum 200,000 cells/ml) at the 4th day from implant were used. A lactalbumin medium enriched with 20% decomplemented calf serum medium was used as culture medium (TC) and, as maintaining medium (TM), after infection of the cultures, a 199 supplemented with 1% bovine crystallized albumin and 2% calf serum was used. All media were added with penicillin (100 U.I/ml) and streptomycin (100 μg/ml). Viral dilutions were carried out with 199 only.
Xenalamine (p-α-ethoxy-p-phenyl-phenacylaminobenzoic acid), xenalic acid (p-(4-biphenyl-glyoxylidene)-amino-benzoic acid) at a 12.5 μg dose; xenaldial (4,4′-bis-diphenylglyoxal hydrate) at a 25 μg dose.
The following procedure was used to evaluate the viral growth curve in the presence of the tested compounds: cultures were infected with 1 ml of viral fluid containing a cytopathogenic dose to obtain an about 1:1 LD50/cell ratio. 1 Hour after the infection at +36° C. and repeated washings with Hanks balanced saline solution, the viral fluid was replaced with TM for the control groups and with TM+drug for the tested cultures.
At time intervals, aliquots from three cultures were taken, washed with Hanks solution, then added with 1 ml of TM and frozen at −30° C.
At the end of the experiment, the culture fluids were thawed and refrozen twice, pooling each aliquot, then titred simultaneously with the corresponding fluids separated before freezing.

MHV-3 hepatitis virus = settings: in words; cited from earlier work
Lymphoblasts cultures = test: Maximal dose tolerated by the cultures; assay type: cell-based; settings: established in previous experiments
Description: as §1
The dose used for each drug is the maximal dose tolerated by the cultures, established in previous experiments.

## O.O.O=CC(=O)c1ccc(-c2ccc(C(=O)C=O)cc2)cc1 [xenaldial, 4-4′-bis-biphenylglyoxal dihydrate]
HIV virus [1]; high viral titre
  reduction of the pathogenic activity of the virus upon exposure (% of the logarithmic values compared with controls): 8.3%
HIV virus [1]; high viral titre (starting stock 6.5)
  Neutralization Index: 0.5
HIV virus [1]; high viral titre: starting stock titre 6.5, control after incubation 6.2
  Viral titre after incubation at 37°-1 h with 200 μg/ml of drug: 6.0
HIV virus [1]; in words
  virucidal activity (on extracellular viral particles): marked virucidal activity
HIV virus [1]; low viral titre
  reduction of the pathogenic activity of the virus upon exposure (% of the logarithmic values compared with controls): 42.8%
HIV virus [1]; low viral titre (starting stock 4.5)
  Neutralization Index: 1.5
HIV virus [1]; low viral titre: starting stock titre 4.5, control after incubation 3.5
  Viral titre after incubation at 37°-1 h with 200 μg/ml of drug: 2.0
A-PR8 Influenza virus
  antiviral activity: active
[2]
  antiviral activity: active
HTLV IIIB; 0.001 μM
  Inhibition %: 44%
HTLV IIIB; 0.01 μM
  Inhibition %: 30%
HTLV IIIB; 0.1 μM
  Inhibition %: 12%
HTLV IIIB; 1 μM
  Inhibition %: 16%
HTLV IIIB; 5 μM
  Inhibition %: 42%
HTLV IIIB; 20 μM
  Inhibition %: 26%
HTLV IIIB; 60 μM
  Inhibition %: 59%
HTLV IIIB; 100 μM
  Inhibition %: 77%
HIV virus [3]; drug added 1 h after infection, xenalamine 12.5 μg/ml, xenaldial 25 μg/ml
  delay in the appearance of the virus in fluids compared with controls: 24 h
HIV virus [3]; xenaldial 25 μg/ml added 1 h and again 48 hours after the infection
  reduction of the intra- and extracellular virus amount compared with controls, time up to which observed: up to 120 hours
MHV-3 hepatitis virus
  antiviral activity: active
Lymphoblasts cultures
  maximal dose tolerated by the cultures: 25 µg

## O=C(O)c1ccc(N=CC(=O)c2ccc(-c3ccccc3)cc2)cc1 [xenalic acid, p-(4-biphenyl-glyoxylidene)-amino-benzoic acid]
HIV virus [1]
  virucidal activity (on extracellular viral particles): marked virucidal activity
HIV virus [3]; same experimental conditions, compared with xenaldial
  inhibitory effect on intracellular viral replication: lower than that of xenaldial
Lymphoblasts cultures
  maximal dose tolerated by the cultures: 12.5 µg

From US20040058999A1, “Compounds with anti-hiv activity” (priority 2002, published 2004)
